Measurements: patent US20250100994A1, “CDK12/13 COVALENT INHIBITORS OR PHARMACEUTICAL COMPOSITION THEREOF, AND USES THEREOF” (The Regents of the University of Michigan, priority 2023, published 2025)
pIC50: −log10 of the molar value. Where two headings read alike, the source gives them in different places.

Columns and labels:
[1] = biological target: CDK12 (Homo sapiens (Human), UniProt Q9NYV4); test: LANCE Ultra kinase assay, CDK12; assay type: biochemical
Method: (§1) The inhibitory activities of the test compound on the kinases were evaluated by LANCE Ultra assay, which was used for detecting ATP-dependent phosphorylation of a ULight-4E-BP1 (Thr37/Thr46) substrate peptide (150 nM). In short, enzymatic reactions were performed in a reaction buffer (25 mM HEPES (pH 7.5), 10 mM MgCl2, 0.01% BSA, 0.01% Tween 20, and 1 mM DTT). The assay was performed in a 384-well plate (6 μL). A final concentration of an ATP substrate was […], and a final concentration of the ULight-4E-BP1 (Thr37/Thr46) substrate peptide was 150 nM. A final concentration of CDK9, CDK12, or CDK13 was 0.3, 30, or 30 nM, respectively. Pre-incubation of the compound and the enzyme was performed at room temperature for 60 min. The reaction was stopped by adding 10 mM EDTA and 0.15 nM Eu-labeled anti-phospho-eIF4E-binding protein 1 (Thr37/46) antibody in LANCE detection buffer after incubation at room temperature for 15, 60, or 90 min. Time-resolved fluorescence (excitation, 320 nm; emission donor, 615 nm; emission acceptor, 665 nm) was monitored using an EnVision spectrophotometer (PerkinElmer). Readings were computed as (acceptor count/donor count)×1000. IC50 values were derived by fitting a sigmoidal dose-response curve to a plot of assay readouts of inhibitor concentrations. All fittings were computed using program Prism 5.03 (GraphPad Software, San Diego, CA).

[2] = biological target: CDK13 (Homo sapiens (Human), UniProt Q14004); test: LANCE Ultra kinase assay, CDK13; assay type: biochemical
Method: as §1

[3] = test system: VCaP cell; test: VCaP cell proliferation, CellTiter-Glo Luminescent Cell Viability Assay; assay type: cell-based; settings: Homo sapiens, VCaP cells
Method: The VCaP cell proliferation activity was determined by CellTiter-Glo Luminescent Cell Viability Assay (Promega, Madison, WI). The cells were inoculated on a 96-well plate in their respective culture mediums, and incubated in an incubator with 5% CO2 at 37° C. After incubation overnight, serial dilutions of the compound were prepared, and added into the 96-well plate. A CellTiter-Glo reagent (volume equal to the volume of the cell culture medium present in each well) was added (e.g., 100 μL of the reagent was added into 100 μL of the cell culture medium in the 96-well plate). The contents were mixed on an orbital shaker for 2 min to induce the cell lysis. The cells in the 96-well plate were incubated at room temperature for 10 min, to stabilize the luminescent signal. Luminescence was recorded: the luminescent signal for each well was acquired using an Infinite M1000 Pro plate reader (Tecan, Zurich, Switzerland), and the data was analyzed using GraphPad Prism software (GraphPad Software Inc, La Jolla, CA).

[4] = biological target: CDK9 (Homo sapiens (Human), UniProt P50750); test: LANCE Ultra kinase assay, CDK9; assay type: biochemical
Method: as §1

[5] = 30 nM enzyme, 60 min pre-incubation, ULight-4E-BP1 150 nM, read-out: CDK12 IC50
[6] = 30 nM enzyme, 60 min pre-incubation, ULight-4E-BP1 150 nM, read-out: CDK13 IC50

Chain of CDK13 (Q14004 whole entry, looked up): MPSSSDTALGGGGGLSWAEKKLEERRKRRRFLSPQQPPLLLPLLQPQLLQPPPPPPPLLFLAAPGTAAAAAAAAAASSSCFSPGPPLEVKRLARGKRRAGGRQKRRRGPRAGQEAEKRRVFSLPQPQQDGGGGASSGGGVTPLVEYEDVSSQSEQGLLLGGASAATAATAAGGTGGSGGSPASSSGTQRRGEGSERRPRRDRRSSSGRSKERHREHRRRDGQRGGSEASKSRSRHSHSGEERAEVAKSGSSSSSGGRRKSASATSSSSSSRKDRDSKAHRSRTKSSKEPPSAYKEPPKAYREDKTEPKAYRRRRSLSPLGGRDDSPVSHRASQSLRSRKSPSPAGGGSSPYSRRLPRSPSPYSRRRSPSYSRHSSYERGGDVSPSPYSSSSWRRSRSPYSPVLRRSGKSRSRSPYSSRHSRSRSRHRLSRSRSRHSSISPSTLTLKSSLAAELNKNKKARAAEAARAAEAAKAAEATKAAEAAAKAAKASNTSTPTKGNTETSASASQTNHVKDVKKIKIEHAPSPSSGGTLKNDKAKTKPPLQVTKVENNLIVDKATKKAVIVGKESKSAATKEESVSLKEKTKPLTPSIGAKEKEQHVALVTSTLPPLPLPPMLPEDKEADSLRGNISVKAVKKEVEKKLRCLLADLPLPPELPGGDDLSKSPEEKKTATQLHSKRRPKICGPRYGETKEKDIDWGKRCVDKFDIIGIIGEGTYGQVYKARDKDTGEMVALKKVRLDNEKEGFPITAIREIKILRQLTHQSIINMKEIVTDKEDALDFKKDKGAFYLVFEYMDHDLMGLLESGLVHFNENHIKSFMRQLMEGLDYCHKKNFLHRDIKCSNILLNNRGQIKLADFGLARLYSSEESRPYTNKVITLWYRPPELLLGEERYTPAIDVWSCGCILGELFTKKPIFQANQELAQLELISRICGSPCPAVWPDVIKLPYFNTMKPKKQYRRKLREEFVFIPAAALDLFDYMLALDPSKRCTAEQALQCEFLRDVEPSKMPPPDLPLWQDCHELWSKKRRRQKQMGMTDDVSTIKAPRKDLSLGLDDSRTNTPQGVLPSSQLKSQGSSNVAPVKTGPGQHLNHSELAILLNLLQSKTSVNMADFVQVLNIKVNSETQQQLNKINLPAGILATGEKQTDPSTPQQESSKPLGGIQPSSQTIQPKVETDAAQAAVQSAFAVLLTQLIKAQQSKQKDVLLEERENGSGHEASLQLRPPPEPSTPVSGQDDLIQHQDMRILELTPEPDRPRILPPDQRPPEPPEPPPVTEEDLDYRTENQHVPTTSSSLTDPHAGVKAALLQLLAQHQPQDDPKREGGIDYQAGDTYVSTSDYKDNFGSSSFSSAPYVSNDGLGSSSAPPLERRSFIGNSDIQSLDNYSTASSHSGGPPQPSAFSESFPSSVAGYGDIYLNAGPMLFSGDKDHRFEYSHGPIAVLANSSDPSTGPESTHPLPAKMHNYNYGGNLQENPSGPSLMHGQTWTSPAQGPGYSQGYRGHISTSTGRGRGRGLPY
Chain of CDK13 (O75909 whole entry partner, looked up): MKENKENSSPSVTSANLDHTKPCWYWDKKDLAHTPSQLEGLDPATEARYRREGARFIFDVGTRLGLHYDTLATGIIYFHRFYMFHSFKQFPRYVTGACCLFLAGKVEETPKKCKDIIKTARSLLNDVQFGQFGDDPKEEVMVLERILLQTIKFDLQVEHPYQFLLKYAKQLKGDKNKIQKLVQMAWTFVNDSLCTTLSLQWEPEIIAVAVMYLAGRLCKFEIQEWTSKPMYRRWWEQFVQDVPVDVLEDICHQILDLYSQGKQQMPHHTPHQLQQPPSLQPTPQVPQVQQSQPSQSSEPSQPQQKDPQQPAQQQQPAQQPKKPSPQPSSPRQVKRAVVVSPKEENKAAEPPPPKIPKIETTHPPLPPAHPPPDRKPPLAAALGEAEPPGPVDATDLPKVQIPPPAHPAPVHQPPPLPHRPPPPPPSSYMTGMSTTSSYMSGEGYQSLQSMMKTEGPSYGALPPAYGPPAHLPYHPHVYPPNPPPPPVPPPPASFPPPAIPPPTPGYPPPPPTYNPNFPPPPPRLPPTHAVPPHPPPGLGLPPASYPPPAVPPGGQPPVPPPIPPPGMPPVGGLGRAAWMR
Chain of CDK12 (Q9NYV4 whole entry): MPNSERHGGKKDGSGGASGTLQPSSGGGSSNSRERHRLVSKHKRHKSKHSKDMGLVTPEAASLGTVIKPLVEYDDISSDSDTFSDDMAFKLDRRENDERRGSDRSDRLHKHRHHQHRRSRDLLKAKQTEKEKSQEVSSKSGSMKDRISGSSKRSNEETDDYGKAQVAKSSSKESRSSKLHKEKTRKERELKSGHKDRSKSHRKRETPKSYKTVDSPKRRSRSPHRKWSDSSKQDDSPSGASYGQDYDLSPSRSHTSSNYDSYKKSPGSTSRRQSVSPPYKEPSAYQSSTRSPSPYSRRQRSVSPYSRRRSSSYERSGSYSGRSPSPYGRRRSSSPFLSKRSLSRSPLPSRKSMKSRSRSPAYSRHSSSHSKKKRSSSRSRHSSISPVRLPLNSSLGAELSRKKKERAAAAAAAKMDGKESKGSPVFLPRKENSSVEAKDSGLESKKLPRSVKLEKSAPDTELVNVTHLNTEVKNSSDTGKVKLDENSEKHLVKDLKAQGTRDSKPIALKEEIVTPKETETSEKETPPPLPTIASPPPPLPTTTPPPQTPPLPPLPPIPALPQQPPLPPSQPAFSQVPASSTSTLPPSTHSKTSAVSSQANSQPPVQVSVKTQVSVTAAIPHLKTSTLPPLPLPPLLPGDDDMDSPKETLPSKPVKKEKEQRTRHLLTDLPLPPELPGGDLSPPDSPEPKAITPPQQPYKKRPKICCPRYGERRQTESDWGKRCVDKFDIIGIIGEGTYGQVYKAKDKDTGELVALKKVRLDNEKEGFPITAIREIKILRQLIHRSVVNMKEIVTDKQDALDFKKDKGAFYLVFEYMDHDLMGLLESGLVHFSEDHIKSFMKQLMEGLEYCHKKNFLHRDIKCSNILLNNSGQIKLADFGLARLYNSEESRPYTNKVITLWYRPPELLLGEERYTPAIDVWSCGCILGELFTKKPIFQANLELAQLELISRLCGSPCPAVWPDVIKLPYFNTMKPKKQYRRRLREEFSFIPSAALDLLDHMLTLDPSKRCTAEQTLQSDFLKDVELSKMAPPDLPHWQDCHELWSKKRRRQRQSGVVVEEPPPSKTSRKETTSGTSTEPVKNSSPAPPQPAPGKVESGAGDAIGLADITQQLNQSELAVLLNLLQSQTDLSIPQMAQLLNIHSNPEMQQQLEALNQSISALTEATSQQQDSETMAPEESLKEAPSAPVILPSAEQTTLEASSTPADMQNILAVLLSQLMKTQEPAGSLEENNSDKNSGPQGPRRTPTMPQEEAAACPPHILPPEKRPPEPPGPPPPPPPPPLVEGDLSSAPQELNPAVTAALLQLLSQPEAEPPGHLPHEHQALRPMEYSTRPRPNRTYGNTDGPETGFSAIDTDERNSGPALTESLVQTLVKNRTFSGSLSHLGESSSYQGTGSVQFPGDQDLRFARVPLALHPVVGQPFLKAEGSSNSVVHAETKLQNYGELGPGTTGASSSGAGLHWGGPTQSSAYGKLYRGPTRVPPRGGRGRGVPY
Chain of CDK12 (O75909 whole entry partner): as the sequence (O75909 whole entry partner, looked up) above
Chain of CDK9 (P50750 whole entry, looked up, species assumed): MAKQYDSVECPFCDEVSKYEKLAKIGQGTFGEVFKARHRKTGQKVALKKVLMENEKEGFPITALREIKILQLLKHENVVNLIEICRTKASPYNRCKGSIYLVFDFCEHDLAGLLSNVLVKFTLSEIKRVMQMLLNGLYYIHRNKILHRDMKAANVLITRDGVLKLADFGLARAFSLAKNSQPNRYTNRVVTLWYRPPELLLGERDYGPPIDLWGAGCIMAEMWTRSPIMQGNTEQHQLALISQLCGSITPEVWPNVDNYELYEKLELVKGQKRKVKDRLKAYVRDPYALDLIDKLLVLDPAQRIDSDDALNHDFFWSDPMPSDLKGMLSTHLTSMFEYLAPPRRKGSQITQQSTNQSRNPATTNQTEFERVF
Chain of CDK9 (O60563 whole entry partner, looked up, species assumed): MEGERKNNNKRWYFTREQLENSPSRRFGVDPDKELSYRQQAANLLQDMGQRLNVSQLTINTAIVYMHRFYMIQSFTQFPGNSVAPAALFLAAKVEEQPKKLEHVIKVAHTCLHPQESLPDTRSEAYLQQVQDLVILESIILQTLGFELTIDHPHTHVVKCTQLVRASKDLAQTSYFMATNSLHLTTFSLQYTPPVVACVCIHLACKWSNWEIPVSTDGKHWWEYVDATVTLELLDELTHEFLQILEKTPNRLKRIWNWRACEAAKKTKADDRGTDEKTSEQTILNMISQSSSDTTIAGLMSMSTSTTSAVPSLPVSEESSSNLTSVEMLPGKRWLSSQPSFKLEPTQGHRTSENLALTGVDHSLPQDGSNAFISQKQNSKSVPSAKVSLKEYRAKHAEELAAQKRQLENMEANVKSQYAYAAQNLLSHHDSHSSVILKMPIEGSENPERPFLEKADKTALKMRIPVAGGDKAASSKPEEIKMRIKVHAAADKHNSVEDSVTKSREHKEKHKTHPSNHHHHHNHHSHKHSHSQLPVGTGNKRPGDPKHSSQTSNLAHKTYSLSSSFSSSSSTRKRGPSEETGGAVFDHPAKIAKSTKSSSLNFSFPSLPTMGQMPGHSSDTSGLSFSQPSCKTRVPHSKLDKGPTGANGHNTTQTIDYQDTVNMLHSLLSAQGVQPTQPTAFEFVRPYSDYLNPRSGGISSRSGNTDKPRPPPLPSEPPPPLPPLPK

SMILES	pIC50 [1, 5]	pIC50 [2, 6]	pIC50 [3]	pIC50 [1]	inhibitory activities on CDK12/13 kinase (CDK12) ([1]; in words)	pIC50 [2]	inhibitory activities on CDK12/13 kinase (CDK13) ([2]; in words)	pIC50 ([4]; 0.3 nM enzyme, 60 min pre-incubation, ULight-4E-BP1 150 nM)	selectivity for CDK9 kinase ([4]; CDK12/13 versus CDK9, in words)
C=CC(=O)Nc1cc(N(C(=O)NCc2ccccc2)[C@H]2CC[C@H](Nc3ccc(C#N)cn3)CC2)ccc1N1CCN[C@@H](C)C1 [YJZ8027]	7.30 to 7.82	> 7.82	7.30 to 7.82	–	–	–	–	–	–
C=CC(=O)Nc1cc(N(C(=O)NCc2ccccc2)[C@H]2CC[C@H](Nc3ccc(C#N)cn3)CC2)ccc1N1C[C@H]2C[C@@H]1CN2C [YJZ6096, N-(5-(3-benzyl-1-((1r,4R)-4-((5-cyanopyridin-2-yl)amino)cyclohexyl)ureido)-2-((1R,4R)-5-methyl-2,5-diazabicyclo[2.2.1]heptan-2-yl)phenyl)acrylamide]	7.30 to 7.82	7.30 to 7.82	6.30 to 7.30	–	–	–	–	–	–
C=CC(=O)Nc1cc(N(C(=O)NCc2ccccc2)[C@H]2CC[C@H](Nc3ccc(C#N)cn3)CC2)ccc1N1CC(N(C)C)C1 [YJZ6077, N-(5-(3-benzyl-1-((1r,4r)-4-((5-cyanopyridin-2-yl)amino)cyclohexyl)ureido)-2-(3-(dimethylamino)azetidin-1-yl)phenyl)acrylamide]	6.30 to 7.30	6.30 to 7.30	6.30 to 7.30	–	–	–	–	–	–
C=CC(=O)Nc1cc(N(C(=O)NCc2ccccc2)[C@H]2CC[C@H](Nc3ccc(C#N)cn3)CC2)ccc1-c1ccc(=O)n(C)c1 [YJZ5028]	7.30 to 7.82	> 7.82	6.30 to 7.30	–	–	–	–	–	–
C=CC(=O)Nc1cc(N(C(=O)NCc2ccccc2)[C@H]2CC[C@H](Nc3ccc(C#N)cn3)CC2)ccc1N1CCC(N(C)C)C1 (stereo partly shown) [YJZ6082]	< 6.30	6.30 to 7.30	6.30 to 7.30	–	–	–	–	–	–
C=CC(=O)Nc1cc(N(C(=O)NCc2ccccc2)[C@H]2CC[C@H](Nc3ccc(C#N)cn3)CC2)ccc1N1CCC(N(C)C)CC1 [YJZ5118, N-(5-(3-benzyl-1-((1r,4r)-4-((5-cyanopyridin-2-yl)amino)cyclohexyl)ureido)-2-(4-(dimethylamino)piperidin-1-yl)phenyl)acrylamide]	–	–	> 7.82	7.30 to 7.82	strong	7.30 to 7.82	strong	< 6.30	good selectivity
C=CC(=O)Nc1cc(N(C(=O)NCc2ccccc2)[C@H]2CC[C@H](Nc3ccc(C#N)cn3)CC2)ccc1N(C)CCN(C)C [YJZ5125, N-(5-(3-benzyl-1-((1r,4r)-4-((5-cyanopyridin-2-yl)amino)cyclohexyl)ureido)-2-((2-(dimethylamino)ethyl)(methyl)amino)phenyl)acrylamide]	6.30 to 7.30	6.30 to 7.30	> 7.82	–	–	–	–	–	–
